Here are results for one compound from patent US20090306342A1, “BINDING OF MOLECULES” (BIO-LAYER PTY LIMITED, priority 2005, published 2009).

Structures are written as SMILES. “Also recorded” adds a separate entry of the source.

For one assay, the system named is Human IgG. Description: SPR IgG binding assay on gold (Example 4). The settings on record: IgG 10-100 ug/mL, polyacrylic acid on gold, FIG. 7. Here is the method:
Slides were then rinsed in Ethanol and incubated in a solution of 1% Polyacrylic acid. 2% w/v Polyacrylic acid was prepared by adding […] of Stock 10% w/v PAA solution (Poly(Acrylic Acid) MW 50K 10% w/v solution in DMF) to […] (N,N-Dimethylformamide (DMF) Labscan HPLC Grade—Dried over sieves and filtered). 100 mM solutions of NHS and DIC were prepared in dry DMF (N-Hydroxysuccinimide (NHS) (Aldrich cat: 130672), N,N′-Diisopropylcarbodiimide (DIC) (Sigma Aldrich cat: D125407)). 15 mL of 100 mM NHS and 15 mL of 100 mM DIC were added to 30 mL of 2% w/v of PAA solution and shaken on a RATEK platform mixer with speed setting 70 for 10 minutes. This gave a final 1.0% w/v solution of activated PAA. Each amino functionalized gold slide was placed in 10 mL of activated 1% wlv PAA solution and allowed to shake on a RATEK platform mixer with speed setting […] for 1 hour. The slides were then rinsed with dry DMF and using house nitrogen with a filter pipette tip in the end of the hose, the slides were blown dry using a concentrated flow over each slide. […]
The first concentration of IgG to be flowed through the cell and over the slide was 10 μg/mL. […] After the final concentration of 100 μg/mL IgG was analyzed, the signal was monitored by flowing 10 mM Phosphate Buffered Saline pH7.4 with 0.2% Tween20 over the slide. […]

In a further assay the test system is Fc of an antibody. Particulars: Protein A binding region; cited from earlier work.

In the case of `NCCNc1nc(NCCc2ccc(O)cc2)nc(Nc2ccccc2)n1` [APA, 2-(2-aminoethylamino)-4-anilino-6-tyramino-s-triazine], in the assay on Human IgG, the “IgG binding by SPR” value is “poor or non-existent”. In addition, in the assay with Fc of an antibody, the “affinity for the Fc of an antibody” value is on record as “medium affinity; also recorded: weakly binds”.
